Molecules are shown by their SMILES.

For the assay, the target named is ATX (human His-tagged) (Homo sapiens (Human), UniProt Q13822). Description: Human ATX enzyme inhibition assay (fluorescence quenching, MR121 substrate). Type of assay: biochemical. Particulars: 30 nM ATX, 1 μM MR121 substrate, 30° C., pH 8.0. Put shortly:
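Tris-HCl buffer at pH 8.0 contained 140 mM NaCl, 5 mM KCl, 1 mM each CaCl2 and MgCl2, and 0.01% Triton X-100. The MR121 substrate (1 μM final) was incubated with enzyme for 15 min at 30 °C, and activity was read by fluorescence quenching.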
A word on the IC50: it is the concentration that gives 50% inhibition. Low readings indicate greater potency in that assay, high ones weaker potency in that assay. For the molecule `O=C(/C=C/c1ccc(C(F)(F)F)cc1)N1C[C@@H]2CN(C(=O)c3ccc4[nH]nnc4c3)C[C@H]2C1` [Example 15.58], the half-maximal inhibitory concentration (IC50) amounted to 5 nM.
In turn, `O=C(CCc1ccc(C(F)(F)F)cc1)N1C[C@@H]2CN(C(=O)c3ccc4[nH]nnc4c3)C[C@H]2C1` [Example 15.59] came in with an IC50 of 11 nM.
`CN(Cc1cnn[nH]1)C(=O)N1C[C@H]2CN(C(=O)CCc3ccc(OC(F)(F)F)cc3)C[C@H]2C1` [Example 15.60] gave a 50% inhibitory concentration (IC50) of 1040 nM.
Under `CN(Cc1cnn[nH]1)C(=O)N1C[C@H]2CCN(C(=O)/C=C/c3ccc(OC(F)(F)F)c(F)c3)CC[C@H]2C1` [Example 15.61, (3aR,8aS)-N-((1H-1,2,3-triazol-5-yl)methyl)-6-((E)-3-(3-fluoro-4-(trifluoromethoxy)phenyl)-acryloyl)-N-methyloctahydro-pyrrolo[3,4-d]azepine-2(1H)-carboxamide] stands 54 nM; under `O=C(CCc1ccc(C(F)(F)F)nc1)N1C[C@@H]2CN(C(=O)c3ccc4[nH]nnc4c3)C[C@H]2C1` [Example 15.62], 68 nM.
Consider `O=C(COc1ccc(OC(F)(F)F)cc1)N1C[C@@H]2CN(C(=O)c3ccc4[nH]nnc4c3)C[C@H]2C1` [Example 15.63], for which the IC50 was 12 nM.
Next, `Cc1cc(OCC(=O)N2C[C@@H]3CN(C(=O)c4ccc5[nH]nnc5c4)C[C@H]3C2)c(C(C)C)cc1Cl` [Example 15.64]: 5 nM; `O=C(CCc1ccc(-c2ccccc2)cc1)N1C[C@@H]2CN(C(=O)c3ccc4[nH]nnc4c3)C[C@H]2C1` [Example 15.65]: 3 nM.
Under `O=C(/C=C/c1ccc(F)cc1C(F)(F)F)N1CC[C@@H]2CN(C(=O)c3ccc4[nH]nnc4c3)C[C@@H]2CC1` [Example 15.66, (E)-1-((3aR,8aS)-2-(1H-benzo[d][1,2,3]triazole-5-carbonyl)octahydro-pyrrolo[3,4-d]azepin-6(7H)-yl)-3-(4-fluoro-2-(trifluoromethyl)phenyl)-prop-2-en-1-one] stands 13 nM.
Turning to `Cc1cc(OCC(=O)N2C[C@@H]3CN(C(=O)c4ccc5[nH]nnc5c4)C[C@@H]3C2)c(C(C)C)cc1Cl` [Example 15.67], the half-inhibitory concentration (IC50) was found to be 14 nM.
Under `CS(=O)(=O)c1ccc(/C=C/C(=O)N2CC[C@@H]3CN(C(=O)c4ccc5[nH]nnc5c4)C[C@@H]3CC2)cc1` [Example 15.68] stands 171 nM.
Under `O=C(/C=C/c1ccc(SC(F)(F)F)cc1)N1CC[C@@H]2CN(C(=O)c3ccc4[nH]nnc4c3)C[C@@H]2CC1` [Example 15.69, (E)-1-((3aR,8aS)-2-(1H-benzo[d][1,2,3]triazole-5-carbonyl)octahydropyrrolo[3,4-d]azepin-6(7H)-yl)-3-(4-(trifluoromethylthio)phenyl)prop-2-en-1-one] stands 8 nM; under `O=C(/C=C/c1ccc(OC(F)(F)F)cc1)N1CC[C@@H]2CN(C(=O)c3ccc4[nH]nnc4c3)C[C@@H]2CC1` [Example 15.70], 7 nM.
Next, `O=C(COc1cccc(OC(F)(F)F)c1)N1C[C@@H]2CN(C(=O)c3ccc4[nH]nnc4c3)C[C@@H]2C1` [Example 15.71]: 1360 nM.
Consider `O=C(/C=C/c1cccc(OC(F)(F)F)c1)N1CC[C@@H]2CN(C(=O)c3ccc4[nH]nnc4c3)C[C@@H]2CC1` [Example 15.72], for which the midpoint of inhibition, the IC50, lay at 15 nM.
Under `O=C(/C=C/c1cccc(OC(F)(F)F)c1)N1C[C@H]2CCN(C(=O)c3ccc4[nH]nnc4c3)C[C@@H]2C1` [Example 15.73] stands 116 nM.
Next, `O=C(/C=C/c1ccc(OC(F)(F)F)cc1)N1C[C@H]2CCN(C(=O)c3ccc4[nH]nnc4c3)C[C@@H]2C1` [Example 15.74]: 12 nM.
Next, `O=C(/C=C/c1ccc(OC(F)(F)F)c(Cl)c1)N1C[C@H]2CCN(C(=O)c3ccc4[nH]nnc4c3)C[C@@H]2C1` [Example 15.75]: 5 nM.
On to `O=C(/C=C/c1cc(Cl)cc(Cl)c1)N1C[C@H]2CCN(C(=O)c3ccc4[nH]nnc4c3)C[C@@H]2C1` [Example 15.76], for which the 50% inhibitory concentration (IC50) came to 13 nM.
`O=C(/C=C/c1ccc(-c2ccccc2)nc1)N1C[C@@H]2CN(C(=O)c3ccc4[nH]nnc4c3)C[C@H]2C1` [Example 15.77] registered an IC50 of 8 nM.
On to `O=C(/C=C/c1ccc(C(F)(F)F)cn1)N1C[C@@H]2CN(C(=O)c3ccc4[nH]nnc4c3)C[C@H]2C1` [Example 15.78, (E)-1-[(3aR,6aR)-5-(1H-benzotriazole-5-carbonyl)-hexahydro-pyrrolo[3,4-c]pyrrol-2-yl]-3-(5-trifluoromethyl-pyridin-2-yl)-prop-2-en-1-one], for which half-maximal inhibition (IC50) was put at 9 nM.
`O=C(/C=C/c1ccc(-c2ccncc2)cc1)N1C[C@@H]2CN(C(=O)c3ccc4[nH]nnc4c3)C[C@H]2C1` [Example 15.79, (E)-1-[(3aR,6aR)-5-(1H-benzotriazole-5-carbonyl)-hexahydro-pyrrolo[3,4-c]pyrrol-2-yl]-3-(4-pyridin-4-yl-phenyl)-prop-2-en-1-one]: inhibition was half-maximal at 135 nM (IC50).
Under `O=C(/C=C/c1ccc(-c2cccnc2)cc1)N1C[C@@H]2CN(C(=O)c3ccc4[nH]nnc4c3)C[C@H]2C1` [Example 15.80, (E)-1-[(3aR,6aR)-5-(1H-benzotriazole-5-carbonyl)-hexahydro-pyrrolo[3,4-c]pyrrol-2-yl]-3-(4-pyridin-3-yl-phenyl)-prop-2-en-1-one] stands 60 nM; under `O=C(/C=C/c1ccc(-c2ccccn2)cc1)N1C[C@@H]2CN(C(=O)c3ccc4[nH]nnc4c3)C[C@H]2C1` [Example 15.81, (E)-1-[(3aR,6aR)-5-(1H-benzotriazole-5-carbonyl)-hexahydro-pyrrolo[3,4-c]pyrrol-2-yl]-3-(4-pyridin-2-yl-phenyl)-prop-2-en-1-one], 19 nM.
Molecule `O=C(/C=C/c1ccc(-c2ccccc2)cn1)N1C[C@@H]2CN(C(=O)c3ccc4[nH]nnc4c3)C[C@H]2C1` [Example 15.84, (E)-1-[(3aR,6aR)-5-(1H-benzotriazole-5-carbonyl)-hexahydro-pyrrolo[3,4-c]pyrrol-2-yl]-3-(5-phenyl-pyridin-2-yl)-prop-2-en-1-one] had an IC50 of 12 nM.
Next, `O=C(CCc1ccc(-c2ccccc2)nc1)N1C[C@@H]2CN(C(=O)c3ccc4[nH]nnc4c3)C[C@H]2C1` [Example 15.85]: 29 nM.
The molecule `CC(C)c1ccccc1OCC(=O)N1C[C@@H]2CN(C(=O)c3ccc4[nH]nnc4c3)C[C@H]2C1` [Example 15.86] came in with a concentration for half-maximal inhibition (IC50) of 19 nM.
`O=C(COc1ccccc1C(F)(F)F)N1C[C@@H]2CN(C(=O)c3ccc4[nH]nnc4c3)C[C@H]2C1` [Example 15.87] gave an IC50 of 103 nM.
Under `O=C(COc1ccccc1-c1ccccc1)N1C[C@@H]2CN(C(=O)c3ccc4[nH]nnc4c3)C[C@H]2C1` [Example 15.88] stands 27 nM; under `O=C(/C=C/N1C[C@@H]2CN(C(=O)[C@@H]3CCc4[nH]nnc4C3)C[C@H]2C1)c1ccc(OC(F)(F)F)cc1` [Example 15.89], 7 nM.
As for `O=C(COc1ccc(OC(F)(F)F)cc1Cl)N1C[C@@H]2CN(C(=O)c3ccc4[nH]nnc4c3)C[C@H]2C1` [Example 15.91], the half-inhibitory concentration (IC50) was found to be 12 nM.
Next, `O=C(COc1ccccc1-n1cccc1)N1C[C@@H]2CN(C(=O)c3ccc4[nH]nnc4c3)C[C@H]2C1` [Example 15.92]: 249 nM.
Next, `COc1cc(C#N)ccc1OCC(=O)N1C[C@@H]2CN(C(=O)c3ccc4[nH]nnc4c3)C[C@H]2C1` [Example 15.93]: 921 nM; `N#Cc1ccc(OCC(=O)N2C[C@@H]3CN(C(=O)c4ccc5[nH]nnc5c4)C[C@H]3C2)cc1` [Example 15.94]: 1020 nM.
Next, `O=C(COc1ccccc1)N1C[C@@H]2CN(C(=O)c3ccc4[nH]nnc4c3)C[C@H]2C1` [Example 15.95]: 1900 nM; `N#Cc1cc(OC(F)(F)F)ccc1OCC(=O)N1C[C@@H]2CN(C(=O)c3ccc4[nH]nnc4c3)C[C@H]2C1` [Example 15.96]: 74 nM.
On to `Cc1ccc(C(C)C)c(OCC(=O)N2CC[C@@H]3CN(C(=O)c4ccc5[nH]nnc5c4)C[C@@H]3CC2)c1` [Example 15.97], for which inhibition was half-maximal at 9 nM (IC50).
Next, `O=C(c1ccc2[nH]nnc2c1)N1C[C@H]2CN(C(=O)c3cc4ccc(OC(F)(F)F)cc4[nH]3)C[C@@H]2C1` [Example 15.98]: 13 nM; `O=C(c1ccc2[nH]nnc2c1)N1C[C@H]2CN(C(=O)c3cc4cc(OC(F)(F)F)ccc4[nH]3)C[C@@H]2C1` [Example 15.99]: 12 nM; `O=C(/C=C/c1ccc([S+]([O-])C(F)(F)F)cc1)N1CC[C@@H]2CN(C(=O)c3ccc4[nH]nnc4c3)C[C@@H]2CC1` (stereo partly drawn) [Example 16, (E)-1-((3aR,8aS)-2-(1H-benzo[d][1,2,3]triazole-5-carbonyl)octahydropyrrolo[3,4-d]azepin-6(7H)-yl)-3-(4-(trifluoromethylsulfinyl)phenyl)prop-2-en-1-one]: 15 nM.
Molecule `O=C(CCc1ccc(OC(F)(F)F)c(F)c1)N1CC[C@@H]2CN(C(=O)c3ccc4[nH]nnc4c3)C[C@@H]2CC1` [Example 17, 1-((3aR,8aS)-2-(1H-Benzo[d][1,2,3]triazole-5-carbonyl)octahydropyrrolo[3,4-d]azepin-6(7H)-yl)-3-(3-fluoro-4-(trifluoromethoxy)phenyl)propan-1-one] registered an IC50 of 4 nM.
Consider `CN(Cc1cnn[nH]1)C(=O)N1C[C@H]2CCN(C(=O)CCc3ccc(OC(F)(F)F)cc3)CC[C@H]2C1` [Example 17.01, (3aR,8aS)-N-((1H-1,2,3-triazol-5-yl)methyl)-N-methyl-6-(3-(4-(trifluoromethoxy)phenyl)-propanoyl)octahydropyrrolo[3,4-d]azepine-2(1H)-carboxamide], for which the half-inhibitory concentration (IC50) turned out to be 85 nM.

The values are drawn from patent publication US10669268B2, “Bicyclic derivatives” (Hoffmann-La Roche Inc., priority 2012, dated 2020).
